Reference: US20210260010A1, “COMPOSITIONS AND METHODS FOR THE REDUCTION OR TREATMENT OF INFLAMMATION” (AXCELLA HEALTH INC., priority 2018, published 2021)

Legend:
TNFα = assay: LPS-induced TNFα secretion in primary human monocyte-derived macrophages (ELISA); assay type: cell-based; parameters: TNFa Measurements Mean: unit not given here; details: for TNFa Measurements Mean: Donor 1, LPS 0.15 ng/mL; for TNFa Measurements Mean / Donor 2 TNFa Measurements Mean / Donor 3 TNFa Measurements Mean: baseline subtracted; for LPS-induced TNFα secretion: macrophages, 0.15 ng/mL LPS; for Donor 2 TNFa Measurements Mean / LPS-induced TNFα secretion: Donor 2
Method: Unpurified buffy coats (Research Blood Components) were carefully poured into 50 mL centrifuge tubes and diluted with room temperature Dulbecco's Phosphate Buffered Saline (dPBS) with Calcium and Magnesium (Gibco). Diluted buffy coats were further divided into four total 50 mL centrifuge tubes at 20 mL per tube. Lymphocyte Separation Medium (Corning) was carefully pipetted to the bottom of each centrifuge tube. Mixtures were centrifuged at 850× g for 32 minutes at 20° C. with 0 deceleration and acceleration.
The PBMC layer was separated from other components after centrifugation and added to new 50 mL centrifuge tube containing 25 mL dPBS. Total volume was brought up to 50 mL with dPBS and centrifuged at 600×g for 10 minutes at 20° C. with acceleration of 9, deceleration of 5. Supernatant was carefully removed from cell pellets. The cell pellets were resuspended using 10 mL dPBS. Total volume was then brought up to 50 mL using dPBS and centrifuged at 450×g for 5 min at 20° C. with acceleration of 9, deceleration of 9. The supernatant removal and cell pellet resuspension was repeated again.
The supernatant was then carefully removed from cell pellets. Cell pellets were resuspended in 10 mL dPBS without calcium or magnesium and filtered through a 70 uM cell strainer. The total PBMC number was determined using a Cellometer K2 automated cell counter. A total of 5E6 cells were saved for flow cytometric analysis. Remaining cells were centrifuged at 490×g for 5 minutes at 20° C. with acceleration of 9, deceleration of 9.
CD14+ cells were selected using EasySep™ Human CD14 Positive Selection Kit II ([…] Technologies). Cells were resuspended in cold EasySep™ Buffer ([…] Technologies) at 1×10^8 cells/mL. A total of 100 uL/mL EasySep™ Human CD14 Positive Selection Cocktail II was added to the cell suspension, mixed, and incubated at room temperature for 10 minutes. A total of 100 uL/mL RapidSpheres were added to the mixture and incubated at room temperature for 3 minutes after mixing, then RoboSep buffer was added to bring up the total volume to 10 mL. The mixture in a 15 mL tube was placed in magnet and incubated at room temperature for 3 minutes. Supernatant was discarded and 10 mL fresh EasySep™ buffer was added to 15 mL tube. The addition of RoboSep buffer, mixing, and discarding of supernatant was repeated two more times.
Negative and positive fractions were centrifuged at 490×g for 5 minutes at 20° C. with acceleration of 9, deceleration of 9, and resuspended in DMEM (Gibco) and 10% Heat Inactivated Fetal Bovine Serum (Atlanta Bio) and Penicillin/Streptomycin. Cells were counted and centrifuged again at 490× g for 5 minutes at 20° C. with acceleration of 9, deceleration of 9. After centrifugation, cell were resuspended in DMEM (Gibco) and 10% Heat Inactivated Fetal Bovine Serum (Atlanta Bio) and Penicillin/Streptomycin containing 500 U/mL […] and plated at 1-2×10^6 cells/mL on 10 cm tissue culture plates. Cells were kept in 37° C., 5% CO2 in between feedings/harvest.
Cells were fed every 3-4 days by removing media and unattached cells, centrifuging at 490× g for 5 minutes at 20° C. with acceleration of 9, deceleration of 9, and resuspending in fresh DMEM (Gibco) and 10% Heat Inactivated Fetal Bovine Serum (Atlanta Bio) and Penicillin/Streptomycin containing GM-CSF. Resuspended cells were seeded back onto 10 cm tissue culture plates and incubated at 37° C., 5% CO2. Differentiated macrophages were used for subsequent experiments.
Primary human PMBC derived macrophages were seeded on day 0 at 3.0E4 cells per well in 96-well microplates (ThermoFisher) in Dulbecco's Modified Eagle Medium (DMEM) (Gibco) supplemented with penicillin-streptomycin (Hyclone) and 10% heat inactivated fetal bovine serum (HI-FBS) (Atlanta Bio) and incubated overnight at 37° C., 5% CO2. On day 1, cells were washed once with 150 uL per well DPBS (Gibco) and treated with 75 uL of: • a. […]

CCL18 = assay: IL-4 induced CCL18 secretion in primary human monocyte-derived macrophages (ELISA); assay type: cell-based; details: for Donor 1 CCL18 Measurements Mean / Donor 2 CCL18 Measurements Mean: relative to vehicle control; for CCL18 Measurements: Mean (fold change relative to vehicle control): IL-4 induced; for IL-4 induced CCL18 secretion (fold change relative to vehicle control): macrophages
Method: Lymphocytes were purified from unpurified buffy coats (Research Blood Components) using Lymphocyte Separation Medium (Corning). After centrifugation, the PBMC layer was extracted and rinsed several times using Dulbecco's phosphate-buffered saline (DPBS; Gibco). After straining PBMCs through a 70 uM cell strainer, cells were resuspended and counted using a Cellometer K2 automated cell counter.
CD14+ cells were selected using EasySep™ Human CD14 Positive Selection Kit II ([…] Technologies) according to manufacturer-supplied protocols. Following isolation CD14+ cells were seeded into 10 cm tissue culture plates and differentiated into macrophages using M-CSF (Peprotech).
On day 0, primary human PBMC derived macrophages were seeded in Dulbecco's Modified Eagle Medium (DMEM) (Gibco) supplemented with penicillin-streptomycin (Hyclone) and 10% heat inactivated fetal bovine serum (HI-FBS) (Atlanta Bio) into 96-well microplates (ThermoFisher) and incubated overnight at 37° C., 5% CO2. On day 1, cells were washed once with DPBS and then treated with: • a. Amino acid free DMEM (US Biologicals) containing a defined custom amino acid concentration based on the mean physiological concentrations in blood based on values published in the Human Metabolome Database (HMDB), with 6 mM glucose, 1 mM sodium pyruvate, 10 mM HEPES, penicillin-streptomycin; or • b. The same medium described above with one amino acid or amino acid combination at various concentrations
On day 2, cells were treated with the same mediums described above supplemented with recombinant human interleukin-4 (IL-4; Peprotech). Control wells were treated with tofacitinib (Tocris) and IL-4, PBS with IL-4, or phosphate buffered saline (PBS) alone.
On day 3, the supernatant was collected and immediately frozen in −80° C. freezer. Cells were washed once with DPBS and viability was assessed using the WST-8 Cell Proliferation Cytotoxicity Assay (Dojindo) according to manufacturer-supplied protocol. Following the assay, cells were washed twice with PBS and fixed with 4% paraformaldehyde. Protein levels in supernatant samples were analyzed by ELISA for CCL18 using commercially available kits (R&D Systems) according to manufacturer-supplied protocols.

CC[C@H](C)[C@H](N)C(=O)O [Isoleucine, L-Isoleucine]
TNFa Measurements Mean (TNFα; Conc. 66 μM (baseline)): 0
TNFa Measurements Mean (TNFα; Conc. 1328 μM): −42.68
TNFa Measurements Mean (TNFα; Conc. 3320 μM): −96.3
TNFa Measurements Mean (TNFα; Conc. 6639 μM): −40.95
Donor 2 TNFa Measurements Mean (TNFα; Conc. 66 μM (baseline)): 4.74E−15
Donor 2 TNFa Measurements Mean (TNFα; Conc. 1328 μM): 2.919
Donor 2 TNFa Measurements Mean (TNFα; Conc. 3320 μM): 10.26
Donor 2 TNFa Measurements Mean (TNFα; Conc. 6639 μM): 19.26
Donor 3 TNFa Measurements Mean (TNFα; Conc. 66 μM (baseline)): −2.4E−15
Donor 3 TNFa Measurements Mean (TNFα; Conc. 1328 μM): −6.23
Donor 3 TNFa Measurements Mean (TNFα; Conc. 3320 μM): 3.309
Donor 3 TNFa Measurements Mean (TNFα; Conc. 6639 μM): −1.66
LPS-induced TNFα secretion (TNFα): increased
Donor 1 CCL18 Measurements Mean (CCL18; Conc. 66 μM): 1.07 fold change
Donor 1 CCL18 Measurements Mean (CCL18; Conc. 1328 μM): 1.12 fold change
Donor 1 CCL18 Measurements Mean (CCL18; Conc. 3320 μM): 1.181 fold change
Donor 1 CCL18 Measurements Mean (CCL18; Conc. 6639 μM): 0.9823 fold change
Donor 2 CCL18 Measurements Mean (CCL18; Donor 2, Conc. 66 μM): 1.204 fold change
Donor 2 CCL18 Measurements Mean (CCL18; Donor 2, Conc. 1328 μM): 1.461 fold change
Donor 2 CCL18 Measurements Mean (CCL18; Donor 2, Conc. 3320 μM): 1.503 fold change
Donor 2 CCL18 Measurements Mean (CCL18; Donor 2, Conc. 6639 μM): 1.685 fold change
CCL18 Measurements: Mean (fold change relative to vehicle control) (CCL18; Donor 3, Conc. 66 μM): 1.056 fold change
CCL18 Measurements: Mean (fold change relative to vehicle control) (CCL18; Donor 3, Conc. 1328 μM): 1.026 fold change
CCL18 Measurements: Mean (fold change relative to vehicle control) (CCL18; Donor 3, Conc. 3320 μM): 1.431 fold change
CCL18 Measurements: Mean (fold change relative to vehicle control) (CCL18; Donor 3, Conc. 6639 μM): 1.111 fold change
IL-4 induced CCL18 secretion (fold change relative to vehicle control) (CCL18; Donor 2): significantly increased

CC(C)C[C@H](N)C(=O)O [Leucine, L-Leucine]
TNFa Measurements Mean (TNFα; Conc. 153 μM (baseline)): 0
TNFa Measurements Mean (TNFα; Conc. 3054 μM): 42.04
TNFa Measurements Mean (TNFα; Conc. 7635 μM): −23.04
TNFa Measurements Mean (TNFα; Conc. 15270 μM): −46.21
Donor 2 TNFa Measurements Mean (TNFα; Conc. 153 μM (baseline)): 0
Donor 2 TNFa Measurements Mean (TNFα; Conc. 3054 μM): 31.74
Donor 2 TNFa Measurements Mean (TNFα; Conc. 7635 μM): 41.98
Donor 2 TNFa Measurements Mean (TNFα; Conc. 15270 μM): 46.69
LPS-induced TNFα secretion (TNFα): increased
Donor 1 CCL18 Measurements Mean (CCL18; Conc. 153 μM): 1.124 fold change
Donor 1 CCL18 Measurements Mean (CCL18; Conc. 3054 μM): 1.302 fold change
Donor 1 CCL18 Measurements Mean (CCL18; Conc. 7635 μM): 1.247 fold change
Donor 1 CCL18 Measurements Mean (CCL18; Conc. 15270 μM): 1.227 fold change
Donor 2 CCL18 Measurements Mean (CCL18; Donor 2, Conc. 153 μM): 1.488 fold change
Donor 2 CCL18 Measurements Mean (CCL18; Donor 2, Conc. 3054 μM): 1.646 fold change
Donor 2 CCL18 Measurements Mean (CCL18; Donor 2, Conc. 7635 μM): 1.825 fold change
Donor 2 CCL18 Measurements Mean (CCL18; Donor 2, Conc. 15270 μM): 1.712 fold change
CCL18 Measurements: Mean (fold change relative to vehicle control) (CCL18; Donor 3, Conc. 153 μM): 1.242 fold change
CCL18 Measurements: Mean (fold change relative to vehicle control) (CCL18; Donor 3, Conc. 3054 μM): 1.502 fold change
CCL18 Measurements: Mean (fold change relative to vehicle control) (CCL18; Donor 3, Conc. 7635 μM): 1.558 fold change
CCL18 Measurements: Mean (fold change relative to vehicle control) (CCL18; Donor 3, Conc. 15270 μM): 1.193 fold change
IL-4 induced CCL18 secretion (fold change relative to vehicle control) (CCL18; Donor 2): significantly increased
IL-4 induced CCL18 secretion (fold change relative to vehicle control) (CCL18; Donor 3): significantly increased
